{"source": "BindingDB's records for doi:10.1021/jm00213a022", "about": "(Sichuan University, 2021)", "key": {"[1]": {"target": "Matrix metalloproteinase-9 (Homo sapiens, UniProt P14780)", "sequence (P14780 whole entry)": "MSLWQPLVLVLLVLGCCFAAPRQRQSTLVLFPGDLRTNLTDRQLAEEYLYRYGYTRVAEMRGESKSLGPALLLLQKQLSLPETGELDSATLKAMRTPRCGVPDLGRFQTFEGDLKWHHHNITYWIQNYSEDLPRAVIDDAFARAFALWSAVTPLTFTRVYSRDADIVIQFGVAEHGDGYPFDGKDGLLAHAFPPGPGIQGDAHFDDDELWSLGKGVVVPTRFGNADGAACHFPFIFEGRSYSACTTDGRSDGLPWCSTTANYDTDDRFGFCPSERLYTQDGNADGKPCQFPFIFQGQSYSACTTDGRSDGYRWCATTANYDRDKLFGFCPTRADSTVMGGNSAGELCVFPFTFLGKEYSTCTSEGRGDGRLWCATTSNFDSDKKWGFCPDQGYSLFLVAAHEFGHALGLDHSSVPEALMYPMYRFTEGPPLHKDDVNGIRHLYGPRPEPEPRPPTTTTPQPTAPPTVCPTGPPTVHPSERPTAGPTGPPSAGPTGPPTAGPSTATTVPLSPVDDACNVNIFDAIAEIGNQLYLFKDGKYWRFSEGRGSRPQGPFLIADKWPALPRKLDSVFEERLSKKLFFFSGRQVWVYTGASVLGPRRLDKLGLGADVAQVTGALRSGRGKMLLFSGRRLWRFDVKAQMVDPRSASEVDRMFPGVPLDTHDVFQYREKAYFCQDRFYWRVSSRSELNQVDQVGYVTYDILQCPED", "test": "Inhibition of MMP-9 (unknown origin)"}, "[2]": {"target": "72 kDa type IV collagenase (Homo sapiens, UniProt P08253)", "sequence (P08253 whole entry)": "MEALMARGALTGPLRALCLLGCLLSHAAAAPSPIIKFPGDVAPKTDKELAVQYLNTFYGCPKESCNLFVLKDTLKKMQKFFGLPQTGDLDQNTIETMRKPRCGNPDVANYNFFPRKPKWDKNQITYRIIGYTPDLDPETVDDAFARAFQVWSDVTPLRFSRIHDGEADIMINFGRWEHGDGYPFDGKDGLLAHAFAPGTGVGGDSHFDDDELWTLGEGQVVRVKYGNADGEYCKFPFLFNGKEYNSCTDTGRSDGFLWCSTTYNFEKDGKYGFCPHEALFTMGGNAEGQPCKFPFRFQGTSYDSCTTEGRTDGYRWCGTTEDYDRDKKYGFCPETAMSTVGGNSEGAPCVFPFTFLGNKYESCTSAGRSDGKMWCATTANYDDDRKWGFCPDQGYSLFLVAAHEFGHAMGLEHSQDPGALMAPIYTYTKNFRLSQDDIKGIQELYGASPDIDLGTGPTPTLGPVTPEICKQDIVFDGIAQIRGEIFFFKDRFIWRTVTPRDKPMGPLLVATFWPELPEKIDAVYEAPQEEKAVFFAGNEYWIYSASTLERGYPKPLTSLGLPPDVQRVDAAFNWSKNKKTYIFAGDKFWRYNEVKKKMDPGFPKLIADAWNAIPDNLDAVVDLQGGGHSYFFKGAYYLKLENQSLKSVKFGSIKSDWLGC", "test": "Inhibition of MMP-2 (unknown origin)"}, "[3]": {"target": "T1, Proteasome subunit beta type-7 (Homo sapiens, UniProt Q99436)", "T1 sequence (Q99436 whole entry)": "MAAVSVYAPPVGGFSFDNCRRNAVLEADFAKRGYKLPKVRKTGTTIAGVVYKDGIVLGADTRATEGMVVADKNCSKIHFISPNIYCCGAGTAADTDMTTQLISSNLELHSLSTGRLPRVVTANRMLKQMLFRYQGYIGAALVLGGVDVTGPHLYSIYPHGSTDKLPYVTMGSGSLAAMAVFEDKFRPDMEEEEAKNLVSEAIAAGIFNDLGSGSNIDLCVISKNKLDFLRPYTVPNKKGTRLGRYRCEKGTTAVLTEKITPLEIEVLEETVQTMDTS", "test": "Inhibition of beta2 proteasome (unknown origin)"}, "[4]": {"target": "ATP-dependent Clp protease proteolytic subunit, mitochondrial (Homo sapiens, UniProt Q16740)", "sequence (Q16740 whole entry, the tested form may be a part)": "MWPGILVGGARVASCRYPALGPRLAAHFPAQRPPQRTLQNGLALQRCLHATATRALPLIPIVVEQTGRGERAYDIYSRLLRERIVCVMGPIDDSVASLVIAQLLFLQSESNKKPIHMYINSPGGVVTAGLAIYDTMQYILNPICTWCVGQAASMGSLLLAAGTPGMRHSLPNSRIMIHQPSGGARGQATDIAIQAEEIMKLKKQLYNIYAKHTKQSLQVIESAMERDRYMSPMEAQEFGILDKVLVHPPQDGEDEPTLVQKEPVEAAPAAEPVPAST", "test": "Agonist activity at human recombinant CLpP (57 to 277 amino acids) expressed in Escherichia coli using fluorogenic peptide AC-WLA-AMC as substrate incubated for 10 mins by fluorescence based assay"}, "Procathepsin L [5]": {"target": "T2, Procathepsin L (Homo sapiens, UniProt P07711)", "T2 sequence (P07711 whole entry)": "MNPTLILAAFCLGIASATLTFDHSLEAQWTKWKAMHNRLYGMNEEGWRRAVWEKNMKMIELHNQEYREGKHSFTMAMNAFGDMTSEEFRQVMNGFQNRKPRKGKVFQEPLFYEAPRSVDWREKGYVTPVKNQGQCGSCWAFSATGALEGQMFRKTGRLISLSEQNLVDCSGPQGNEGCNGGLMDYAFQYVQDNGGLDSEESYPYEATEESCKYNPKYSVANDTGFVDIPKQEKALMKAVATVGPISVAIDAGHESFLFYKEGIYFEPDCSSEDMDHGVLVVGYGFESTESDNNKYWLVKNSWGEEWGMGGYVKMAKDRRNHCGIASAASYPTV", "test": "Binding affinity to Cathepsin L (unknown origin) assessed as inhibition constant"}, "[6]": {"target": "T3, Proteasome subunit beta type-5 (Homo sapiens, UniProt P28074)", "T3 sequence (P28074 whole entry)": "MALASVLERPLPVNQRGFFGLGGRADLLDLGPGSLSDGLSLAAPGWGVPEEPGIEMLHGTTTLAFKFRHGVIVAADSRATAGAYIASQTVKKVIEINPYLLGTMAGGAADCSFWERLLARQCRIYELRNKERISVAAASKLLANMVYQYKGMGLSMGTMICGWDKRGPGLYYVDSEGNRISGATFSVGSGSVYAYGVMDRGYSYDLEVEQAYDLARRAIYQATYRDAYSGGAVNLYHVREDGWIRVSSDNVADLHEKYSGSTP", "test": "Inhibition of beta5 proteasome (unknown origin)"}, "[7]": {"target": "T4, Proteasome subunit beta type-1 (Homo sapiens, UniProt P20618)", "T4 sequence (P20618 whole entry)": "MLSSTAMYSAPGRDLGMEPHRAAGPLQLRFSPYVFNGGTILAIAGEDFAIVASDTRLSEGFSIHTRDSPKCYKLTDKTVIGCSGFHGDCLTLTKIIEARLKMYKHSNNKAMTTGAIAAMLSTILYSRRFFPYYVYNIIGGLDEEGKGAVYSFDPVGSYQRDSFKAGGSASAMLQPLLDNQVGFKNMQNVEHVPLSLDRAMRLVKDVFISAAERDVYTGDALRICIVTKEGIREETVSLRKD", "test": "Inhibition of beta 1 proteasome (unknown origin)"}, "Procathepsin L [8]": {"target": "T2, Procathepsin L", "test": "Inhibition of human cathepsin L"}, "Cathepsin K": {"target": "T5, Cathepsin K (Homo sapiens, UniProt P43235)", "T5 sequence (P43235 whole entry)": "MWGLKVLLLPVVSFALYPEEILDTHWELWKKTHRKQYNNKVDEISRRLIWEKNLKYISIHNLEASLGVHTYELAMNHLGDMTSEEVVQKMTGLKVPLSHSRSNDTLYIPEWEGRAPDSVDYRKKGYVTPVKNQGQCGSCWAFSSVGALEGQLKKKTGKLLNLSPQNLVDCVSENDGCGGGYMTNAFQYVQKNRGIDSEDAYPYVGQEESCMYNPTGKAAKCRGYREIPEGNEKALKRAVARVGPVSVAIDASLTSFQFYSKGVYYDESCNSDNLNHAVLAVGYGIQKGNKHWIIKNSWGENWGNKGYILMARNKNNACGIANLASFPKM", "test": "Inhibition of human cathepsin K"}}, "note": "Peptide text beside a SMILES is read from it. * marks the point of attachment. Cbz = O=C(OCc1ccccc1)*", "data": [{"smiles": "CCc1ccc(C#Cc2ccc(S(=O)(=O)N[C@H](C(=O)O)C(C)C)s2)cc1", "values": [{"measurement": "IC50", "setting": "[1]", "result": 4.4, "unit": "nM"}, {"measurement": "IC50", "setting": "[2]", "result": 4.8, "unit": "nM"}]}, {"smiles": "CC(C)N1CCN(C2(c3ccc(Oc4ccc(Br)cc4)cc3)C(=O)NC(=O)NC2=O)CC1", "note": "[5-[4-(4-Bromo-phenoxy)-phenyl]-5-(4-isopropyl-piperazin-1-yl)-pyrimidine-2,4,6-trione]", "values": [{"measurement": "IC50", "setting": "[1]", "result": 1, "unit": "nM"}, {"measurement": "IC50", "setting": "[2]", "result": 26, "unit": "nM"}]}, {"smiles": "CC(C)C[C@@H](C=O)NC(=O)[C@H](CC(C)C)NC(=O)[C@H](CC(C)C)NC(=O)OCc1ccccc1", "note": "[{1-[(S)-(S)-1-((S)-1-Formyl-3-methyl-butylcarbamoyl)-3-methyl-butylcarbamoyl]-3-methyl-butyl}-carbamic acid benzyl ester] (Cbz-Leu-Leu-Leu-aldehyde)", "values": [{"measurement": "IC50", "setting": "[3]", "result": 1080, "unit": "nM"}]}, {"smiles": "C#Cc1cccc(CN2CCC3=C(C2)C(=O)N(Cc2ccc(C)cc2)C2=NCCN23)c1", "values": [{"measurement": "EC50", "setting": "[4]", "result": 800, "unit": "nM"}]}, {"smiles": "COc1ccc(S(=O)(=O)N(Cc2cccnc2)[C@@H](CCF)C(=O)NO)cc1", "values": [{"measurement": "IC50", "setting": "[1]", "result": 3, "unit": "nM"}, {"measurement": "IC50", "setting": "[2]", "result": 33, "unit": "nM"}]}, {"smiles": "Cn1c2c(c(=O)n(Cc3ccc(Cl)cc3)c1=O)CN(Cc1cccc(C#N)c1)CC2", "values": [{"measurement": "EC50", "setting": "[4]", "result": 135, "unit": "nM"}]}, {"smiles": "CC(C)C[C@H](NC(=O)OC(C)(C)C)C(=O)N1C[C@H]1C(=O)N1[C@H](C(=O)OCc2ccccc2)[C@@H]1C(=O)OCc1ccccc1", "values": [{"measurement": "Ki", "setting": "Procathepsin L [5]", "result": 13, "unit": "nM"}]}, {"smiles": "N#Cc1cccc(CN2CCC3=C(C2)C(=O)N(Cc2ccc(Cl)cc2)C2=NCCN23)c1", "values": [{"measurement": "EC50", "setting": "[4]", "result": 120, "unit": "nM"}]}, {"smiles": "Cc1cccc(CN2CCc3c(c(=O)n(Cc4ccc(C(F)(F)F)cc4)c(=O)n3CCCN)C2)c1", "values": [{"measurement": "EC50", "setting": "[4]", "result": 120, "unit": "nM"}]}, {"smiles": "O=C(c1ccccc1)c1ccc(S(=O)(=O)CC(CCCc2ccccc2)C(=O)NO)cc1", "note": "(configuration not stated) [2-(4-Benzoyl-benzenesulfonylmethyl)-5-phenyl-pentanoic acid hydroxyamide]", "values": [{"measurement": "IC50", "setting": "[1]", "result": 5, "unit": "nM"}, {"measurement": "IC50", "setting": "[2]", "result": 4, "unit": "nM"}]}, {"smiles": "CC(C)[C@H](O)C12NC(=O)[C@H](C)[C@@H]1OC2=O", "note": "(some centres not stated)", "values": [{"measurement": "IC50", "setting": "[6]", "result": 47, "unit": "nM"}]}, {"smiles": "CC(C)C[C@H](NC(=O)[C@@H](NC(=O)c1cccc(-c2ccccc2)n1)[C@@H](C)O)B(O)O", "note": "[(R)-1-((2S,3R)-3-hydroxy-2-(6-phenylpicolinamido)butanamido)-3-methylbutylboronic acid]", "values": [{"measurement": "IC50", "setting": "[6]", "result": 1.5, "unit": "nM"}]}, {"smiles": "COc1ccc(-c2ccc(S(=O)(=O)N(OC(C)C)[C@H](CCC3C(=O)c4ccccc4C3=O)C(=O)NO)cc2)cc1", "values": [{"measurement": "IC50", "setting": "[1]", "result": 0.43, "unit": "nM"}, {"measurement": "IC50", "setting": "[2]", "result": 0.67, "unit": "nM"}]}, {"smiles": "O=C1NC2([C@@H](O)[C@@H]3C=CCCC3)C(=O)O[C@H]2[C@H]1CCCl", "note": "(some centres not stated)", "values": [{"measurement": "IC50", "setting": "[6]", "result": 2.6, "unit": "nM"}, {"measurement": "IC50", "setting": "[3]", "result": 8, "unit": "nM"}, {"measurement": "IC50", "setting": "[7]", "result": 33, "unit": "nM"}]}, {"smiles": "CC(C)C[C@H](NC(=O)CNC(=O)c1cc(Cl)ccc1Cl)B(O)O", "values": [{"measurement": "IC50", "setting": "[3]", "result": 3500, "unit": "nM"}]}, {"smiles": "N#CN1CC(CNC(=O)C2CCCCC2)C1", "note": "[Cyclohexanecarboxylic acid (1-cyano-azetidin-3-ylmethyl)-amide]", "values": [{"measurement": "IC50", "setting": "Procathepsin L [8]", "result": 6, "unit": "nM"}, {"measurement": "IC50", "setting": "Cathepsin K", "result": 5, "unit": "nM"}]}, {"smiles": "N#Cc1cccc(CN2CCC3=C(C2)C(=O)N(Cc2ccc(C(F)(F)F)cc2)C2=NCCN23)c1", "values": [{"measurement": "EC50", "setting": "[4]", "result": 120, "unit": "nM"}]}, {"smiles": "CCN([C@@H](C(=O)O)C(C)C)S(=O)(=O)c1ccc(-c2nc(-c3ccc(C)s3)no2)cc1", "values": [{"measurement": "IC50", "setting": "[1]", "result": 36, "unit": "nM"}, {"measurement": "IC50", "setting": "[2]", "result": 3.7, "unit": "nM"}]}]}
